Experimental data as given in patent US20250325467A1, “COMPOSITIONS FOR PREVENTING OR TREATING SKIN AGING” (ESTETRA SRL, priority 2021, published 2025).
“Also recorded” adds a separate entry of the source.

How the values were obtained:
[1] = test system: Normal Human Dermal Fibroblasts (NHDFs); assay: Colonization of a standard acellular area (IBIDI chamber gap closure) by fibroblasts; format: cell-based; details: vs ethanol control; for NHDF Migration (+MMC) (colonization of the acellular area): presence of MMC, 6 h and 24 h
Description: The study consists in an in vitro assay aiming to evaluate the properties of E4 and E2 at 4 concentrations each on keratinocytes and fibroblasts. In this assay, the measurement of the colonization of a standard acellular surface generated from a confluent monolayer of cells using a dedicated culture device (IBIDI chamber) is performed. The assay is performed in absence and in presence of a proliferation inhibitor to focus on cell proliferation and migration or on migration only, respectively.
Normal Human forskin-derived Dermal Fibroblats (NHDFs, ATCC) cells were grown in phenol-free Dulbecco's Modified Eagle Medium (DMEM, ThermoFisher Scientific) supplemented with 10% of Foetal Bovine Serum (FBS, ThermoFisher Scientific), L-glutamine and antibiotics. The cells were maintained in a humidified incubator at 37° C. with a 5% CO2 atmosphere.
Cells were plated in 2-well silicone inserts with a defined cell free gap (IBIDI chambers; IBIDI GmbH, 80209) that was previously inserted on 12-well culture plates. This culture device allows to create a standardized 500 μm±100 μm cell free gap for monitoring cell colonization. 24 h after seeding, when the culture reached high confluency, cells in the insert were treated, or not, with mitomycin C (MMC) at 10 μg/ml during 2 h. After these 2 hours, the insert was removed, and cells were treated with E2 or E4 in presence or not of MMC for additional 2 h. Then, if appropriate, the culture medium was removed and cells were treated with E2 or E4 for 22 h, in absence of MMC.
For the assay, keratinocytes were plated in Epilife medium without HKGS and all the treatments were performed in this medium. Fibroblasts were plated in DMEM medium containing only 2,5% of FBS and the treatments were performed in absence of FBS.
E2 and E4 were applied at 4 concentrations each (10^−7M, 10^−8M, 10^−9M, 10^−10M). In parallel, cells were treated with a positive control (HKGS 1% for human keratinocytes and PDGF-BB at 10 ng/ml for human fibroblasts).
To monitor cell colonization and to evaluate the gap closure rate, pictures of the gap were taken after different times: at time 0 h, corresponding to the beginning of the treatment with E2 or E4 and to the removal of the culture insert, at time 6 h and at time 24 h (corresponding to the end of the treatments with E2 or E4). Pictures were taken with a microscope Zeiss (Axiover 25-10× objective) and with a camera Invenio2EIII (DeltaPix—Lux-Optic). The colonized areas were quantified from the pictures by the use of the WimAsis platform—WimScratch software. For each insert, 3 pictures were taken at each time. As each condition was performed in triplicates, it means a total of 9 pictures per condition and per time point of acquisition

[2] = test system: mouse lymphoma cell line L5178Y TK^+/−; assay: Generation of reactive oxygen species (ROS) in mouse lymphoma cells; format: cell-based; details: test item 1 to 3000 μM; 3 h exposure; vs vehicle control; three experiments
Description: The objective of the study was to investigate the generation of reactive oxygen species (ROS) induced by the test item, estetrol (E4), in a mouse lymphoma cell line L5178Y TK^+/−.
L5178Y TK^+/− cells in logarithmic phase of growth were plated in black 96 well cell culture plates at 1×10^4 cells in 90 μL of cell culture media. Controls and test item in triplicate were applied to the cells as a 10× concentrate in 10 μL of a 10% ethanol solution in PBS (final concentration of ethanol on plate was 1%). Cells were incubated for 3 hours at 37° C., 5% CO2, and the generation of ROS was evaluated by fluorescence with a ROS reagent: the ROS reagent was freshly prepared by dissolving one ampoule of reagent (50 μg) in 70 μL DMSO and further diluting this with 2.1 mL of pre-warmed PBS. 10 μL of ROS reagent was added to each well and the plate were shaken for 30 seconds in the dark. The plates were incubated approximately at 37° C., 5% CO2 for 1 h 30 min and fluorescence was read on a plate scanner with excitation at 492 nm and emission at 520 nm.

SMILES: C[C@]12CC[C@@H]3c4ccc(O)cc4CC[C@H]3[C@@H]1[C@@H](O)[C@@H](O)[C@@H]2O [E4, 1,3,5 (10)-estratrien-3,15alpha,16alpha,17beta-tetrol]
- NHDF Migration (+MMC) (colonization of the acellular area) ([1]; 10^−7M): significantly increase the colonization of the acellular area; also recorded: significant activity
- NHDF Migration (+MMC) (colonization of the acellular area) ([1]; 10^−8M): significantly increase the colonization of the acellular area; also recorded: significant activity
- colonization of the cell-free area by NHDF, overall ([1]; absence of MMC, all four concentrations (10^−7M to 10^−10M)): not able to significantly increase the colonization of the cell-free area
- levels of ROS [2]: dose-dependent decrease in the levels of ROS
